According to PMC9698773, “Design, Synthesis, Molecular Modeling, and Anticancer Evaluation of New VEGFR-2 Inhibitors Based on the Indolin-2-One Scaffold” (Pharmaceuticals, 2022):

System: MCF-7 cell line
Test: MTT cytotoxicity assay, MCF-7
Assay type: cell-based, human
Experimental: The cytotoxic activities against breast MCF-7 and liver HepG2 cancer cell lines for all the synthesized compounds 3a,b–17a,b were evaluated by MTT-based cytotoxicity assay. Sunitinib was selected as a reference standard in this study, and the results are presented as IC50 in Table 1.
The anticancer activities of the target compounds 3a,b–17a,b were quantitatively assessed using the MTT protocol against the MCF-7 and HepG2 cell lines, as described in the Supplementary Materials. […]
4.2. Biological investigation
4.2.1. In vitro cytotoxic activity assay
Citation: Abdelgawad, M.A.; Cell Line cells were obtained from the American Type Culture Collection. The cells Hayallah A.M.; Bukhari S.N.A.; were cultured using DMEM (Invitrogen/Life Technologies) supplemented with 10% FBS Musa A.; Elmowafy M.; (Hyclone,), 10 ug/ml of insulin (Sigma), and 1% penicillin‐streptomycin. All of the other Abdel‐Rahman, H.M.; chemicals and reagents were from Sigma or Invitrogen. Plate cells (cells density 1.2 – 1.8 Abd El‐Gaber, M.K. Design, × 10,000 cells/well) in a volume of 100μl complete growth medium + 100 μl of the tested Synthesis, Molecular Modeling, and compound per well in a 96‐well plate for 24 hours before the MTT assay. The tested com‐ Anticancer Evaluation of New pounds were dissolved in DMSO just before the test.
VEGFR‐2 Inhibitors Based on the Indolin‐2‐One Scaffold. 4.2.1.1. Cell culture protocol
Pharmaceuticals 2022, 15, x. The culture medium was removed to a centrifuge tube. The cell layer was briefly https://doi.org/10.3390/xxxxx rinsed with 5 mL of 0.25% (w/v) Trypsin and 3 mL of 0.53 mM EDTA solution to remove Academic Editor(s): Mary J. Meegan all traces of serum which contains Trypsin inhibitor. Next, 2.0 to 3.0 ml of Trypsin EDTA Received: 18 October 2022 solution was added to the flask and cells were observed under an inverted microscope Accepted: 9 November 2022 until the cell layer was dispersed (usually within 5 to 15 minutes). Then, 6.0 to 8.0 mL of Published: 14 November 2022 complete growth medium was added and cells aspirated by gently pipetting. The cell suspension was transferred to the centrifuge tube with the medium and cells from step 1, Publisher’s Note: MDPI stays neu‐and centrifuged at approximately 125 xg for 5 to 10 minutes. The supernatant was dis‐ tral with regard to jurisdictional carded and the cell pellet was suspended in fresh growth medium. Appropriate aliquots claims in published maps and institu‐ of the cell suspension were added to new culture vessels and incubated at 37°C for 24 hrs. tional affiliations. After treatment of cells with the serial concentrations of the compound to be tested, incu‐ bation was carried out for 48 h at 37 °C. The plates were examined under an inverted mi‐ croscope and proceeded for the MTT assay […]
Submitted for possible open access 4.2.1.2. […]
HepG‐2) were used in this test. At first, the cell lines were cultured in RPMI‐1640 medium Pharmaceuticals 2022, 15, x. https://doi.org/10.3390/xxxxx. www.mdpi.com/journal/pharmaceuticals […]
Pharmaceuticals 2022, 15, x FOR PEER REVIEW 2 of 22 with 10% fetal bovine serum. Antibiotics (100 units/ml penicillin and100 μg/ml strepto‐ mycin) were added at 37 °C in a 5% CO2 incubator. The cell lines were seeded in a 96‐well plate at a density of 1.0 x 10^4 cells / well at 37 °C for 48 h under 5% CO2. After incubation, the cells were treated with different concentrations of the synthesized compounds and incubated for 24 h. After 24 h of drug treatment, 20 μl of MTT solution (5mg/ml) was added and incubated for 4 h. 100 μl of dimethyl sulfoxide (DMSO) was added into each well to dissolve the formed purple formazan. The colored solution was measured and recorded at an absorbance of 570 nm using a plate reader (EXL 800, USA). The relative cell viability was calculated in percentage as (A570 of treated samples/A570 of untreated sam‐ ple) X 100. The half maximal inhibitory concentration (IC50) values were presented using […]

SMILES: O=C1Nc2ccccc2C1=Nc1ccc(C(=O)NNC(=S)Nc2ccccc2)cc1 [Compound 17a, 2-(4-((2-Oxoindolin-3-ylidene)amino)benzoyl)-N-phenylhydrazinecarbothioamide]
- IC50 (Homo sapiens, MCF7, MTT assay, mean ± SD of three experiments): 1440 ± 110 nM
- fold more potent than sunitinib, MCF-7 (ratio of IC50 to sunitinib): three-fold
